Assay results published in the supplement of paper PMC10477900.
Structures can show the parent of a compound that is named as a salt.

How the values were obtained:
[1] = test system: HCT116; settings: 72 h
Experimental: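 HCT116 control and MTA1-KO (CRISPR) HCT116 cells were seeded in 384-well plates (800 cells/well), treated 16 h later with 237 metabolism-related anticancer drugs at five doses (10 uM, 2 uM, 400 nM, 80 nM, 16 nM) for 72 h, two replicates; viability by CCK8. Values are % inhibition of viability relative to untreated cells, plus fitted IC50.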

[2] = test system: HCT116; assay: viability inhibition vs untreated; higher = more cytotoxic; settings: 72 h

Structure (SMILES) | IC50 ([1]; genotype: MTA1-KO) | IC50 ([1]; genotype: control) | viability inhibition ([2]; genotype: MTA1-KO, 16 nM) | viability inhibition ([2]; genotype: MTA1-KO, 80 nM) | viability inhibition ([2]; genotype: MTA1-KO, 400 nM) | viability inhibition ([2]; genotype: MTA1-KO, 2000 nM) | viability inhibition ([2]; genotype: MTA1-KO, 10000 nM) | viability inhibition ([2]; genotype: control, 16 nM) | viability inhibition ([2]; genotype: control, 80 nM) | viability inhibition ([2]; genotype: control, 400 nM) | viability inhibition ([2]; genotype: control, 2000 nM) | viability inhibition ([2]; genotype: control, 10000 nM)
Cc1ccc(C(=O)Cn2c3c(sc2=N)CCCC3)cc1 [Pifithrin-α] | > 10 µM | > 10 µM | -1.55% | -3.09% | -7.19% | 3.88% | 32% | 9.06% | 2.07% | 21.3% | 9.85% | 22.1%
Cc1ccc(-c2cn3c4c(sc3n2)CCCC4)cc1 [Pifithrin-β hydrobromide] | > 10 µM | > 10 µM | -6.36% | -17.5% | -18.2% | -13.4% | 33% | -6.38% | -10.8% | -7.66% | 2.45% | -13.6%
NS(=O)(=O)C#Cc1ccccc1 [Pifithrin-μ] | > 10 µM | > 10 µM | -6.33% | -6.69% | -11.6% | -13.4% | -5.71% | 12.9% | -14.1% | -16.5% | -18.1% | 20.2%
O=C(O)C[C@H](O)C[C@H](O)/C=C/c1c(C2CC2)nc2ccccc2c1-c1ccc(F)cc1 [Pitavastatin calcium] | > 10 µM | 3.1 µM | -24.4% | -25.7% | -30.7% | -23.8% | 31% | 11% | -0.547% | -0.73% | 5.9% | 75.5%
C#CCC(Cc1cnc2nc(N)nc(N)c2n1)c1ccc(C(=O)N[C@@H](CCC(=O)O)C(=O)O)cc1 (stereo partly specified) [Pralatrexate] | 0.022 µM | < 0.016 µM | 37.5% | 71.4% | 71.7% | 75% | 77.3% | 52.4% | 77.9% | 78.8% | 80.6% | 79.1%
CC[C@H](C)C(=O)O[C@H]1C[C@H](O)C=C2C=C[C@H](C)[C@H](CC[C@@H](O)C[C@@H](O)CC(=O)O)[C@H]21 [Pravastatin sodium] | > 10 µM | > 10 µM | 9.21% | -16.3% | -12.8% | -12.2% | -1.55% | 10.2% | -15.3% | -11.6% | -6.15% | 6.05%
CC(=O)OCC(=O)[C@@]1(O)CC[C@H]2[C@@H]3CCC4=CC(=O)C=C[C@]4(C)[C@H]3[C@@H](O)C[C@@]21C [Prednisolone-21-acetate] | > 10 µM | > 10 µM | -12.5% | -14% | -3.35% | -0.355% | -5.46% | -5.13% | -7.24% | -8.51% | -7.3% | -12.1%
CC(C)(Sc1cc(C(C)(C)C)c(O)c(C(C)(C)C)c1)Sc1cc(C(C)(C)C)c(O)c(C(C)(C)C)c1 [Probucol] | > 10 µM | > 10 µM | -5.9% | -11% | -1.83% | -5.06% | -0.265% | 6.44% | 11.6% | -2.62% | 16.6% | 9.78%
CCc1nc(N)nc(N)c1-c1ccc(Cl)cc1 [Pyrimethamine] | 6.54 µM | 4.89 µM | -6.42% | -11.6% | -0.866% | 10.9% | 60.5% | 2.52% | 7.55% | 13.3% | 20.1% | 82.3%
OCc1ccc(-c2ccc(-c3ccc(CO)s3)o2)s1 [RITA] | 1.21 µM | 0.153 µM | 7.71% | 35% | 91.7% | 101% | 99% | -0.895% | 27.2% | 72.5% | 96.3% | 104%
Cc1nc2ccc(CN(C)c3ccc(C(=O)N[C@@H](CCC(=O)O)C(=O)O)s3)cc2c(=O)[nH]1 [Raltitrexed] | 0.0857 µM | > 10 µM | -4.56% | 33.6% | 75.8% | 81.5% | 82.6% | -7.91% | -17.2% | 24.9% | 13% | -5.41%
COc1ccccc1OCC(O)CN1CCN(CC(=O)Nc2c(C)cccc2C)CC1 (stereo unspecified) [Ranolazine dihydrochloride] | > 10 µM | > 10 µM | -7.57% | -13.7% | -7.85% | -21.5% | -19% | -2.04% | 2.97% | -7.95% | -0.947% | 15%
COc1ccccc1OCC(O)CN1CCN(CC(=O)Nc2c(C)cccc2C)CC1 (stereo unspecified) [Ranolazine] | 6.87 µM | > 10 µM | -0.081% | 5.69% | 8.98% | 2.99% | 74.3% | -8.25% | -12.6% | -15.3% | -15% | 8.96%
CO[C@H]1C[C@@H]2CC[C@@H](C)[C@@](O)(O2)C(=O)C(=O)N2CCCC[C@H]2C(=O)O[C@H]([C@H](C)C[C@@H]2CC[C@@H](O)[C@H](OC)C2)CC(=O)[C@H](C)/C=C(\C)[C@@H](O)[C@@H](OC)C(=O)[C@H](C)C[C@H](C)/C=C/C=C/C=C/1C [Rapamycin] | > 10 µM | > 10 µM | 4.81% | 4.98% | 3.36% | 17.6% | 18.4% | -3% | -2.75% | 2.91% | 0.723% | 24.6%
Cc1nc(Nc2ccc(F)cc2)nc(N2CCc3ccccc3C2C)c1C (stereo unspecified) [Revaprazan hydrochloride] | > 10 µM | > 10 µM | -4.67% | -1.6% | -2.29% | -13.6% | -33.6% | 20.9% | 17.7% | 11% | 7.17% | -10.8%
C[C@]12CC[C@H](O)C[C@H]1CC[C@@H]1[C@@H]2CC[C@]2(C)[C@@](O)(c3ccoc3)CC[C@]12O [Rostafuroxin] | > 10 µM | > 10 µM | 11.8% | 13.5% | 10% | 14.5% | 30.6% | -0.895% | 11.7% | 13.9% | 5.09% | 13%
CC(C)c1nc(N(C)S(C)(=O)=O)nc(-c2ccc(F)cc2)c1/C=C/[C@@H](O)C[C@@H](O)CC(=O)O [Rosuvastatin] | > 10 µM | > 10 µM | -4.22% | -8.46% | -10.3% | -11.2% | -10.9% | -1.14% | -8.14% | 4.9% | -10.3% | 31.2%
C=C(C)[C@H]1Cc2c(ccc3c2O[C@@H]2COc4cc(OC)c(OC)cc4[C@@H]2C3=O)O1 [Rotenone] | 0.0743 µM | < 0.016 µM | 16.6% | 34.1% | 35.3% | 43.4% | 51.6% | 63.1% | 57.1% | 46.9% | 45.4% | 65.4%
O=c1cc(N2CCOCC2)oc2c(-c3ccc4c(c3)OCCO4)csc12 [SF2523] | 8.68 µM | 9.37 µM | 7.25% | -7.41% | -9.52% | -14.8% | 68.1% | -25.2% | -16.4% | -24% | -23.1% | 55.5%
C/C(=N\NC(=O)c1cccc(S(=O)(=O)N2CCOCC2)c1)c1cc(Cl)ccc1O [SP2509] | 0.69 µM | 0.493 µM | 13% | 7.45% | 18% | 98.5% | 99.6% | -5.87% | -2.4% | 14.8% | 104% | 103%
CC(C)(C)c1ccc(S(=O)(=O)NCc2ccc(C(=O)Nc3cccnc3)cc2)cc1 [STF31] | > 10 µM | 1.33 µM | 0.724% | -19.9% | -8.95% | -5.53% | 6.98% | 18.1% | 6.81% | 42.8% | 43.4% | 74.1%
c1ccc2c(CCNc3ccc(Nc4ccncc4)cc3)c[nH]c2c1 [Serdemetan] | 1.66 µM | 2.48 µM | 10.9% | 7.55% | 13.6% | 65.6% | 107% | 10.5% | 10.9% | 5.2% | 5.93% | 85.1%
Oc1ccc2c(c1)OCO2 [Sesamol] | > 10 µM | > 10 µM | -15.3% | -20.6% | -20.7% | -23.5% | -9.02% | 12.7% | -1.76% | -11.9% | -12.6% | -2.94%
O=C(O)c1ccc2c(c1)nc(Nc1cccc(Cl)c1)c1ccncc12 [Silmitasertib] | > 10 µM | > 10 µM | -17.2% | -23.7% | -18.2% | -24.2% | -22% | 7.6% | -9.55% | -4.38% | -8.94% | -1.95%
O=C([O-])C(Cl)Cl.[Na+] [Sodium Dichloroacetate] | > 10 µM | > 10 µM | -5.96% | -6.01% | -16.4% | -11.2% | 11.1% | -15.2% | -8.93% | -10.2% | -22.3% | -2.12%
Cc1c(CN2CCN(c3cccc(C(F)(F)F)c3)CC2)cc(-c2ccccc2)n1NC(=O)c1ccncc1 [Sudoterb free base] | > 10 µM | > 10 µM | -13.3% | -15.8% | -16% | -17% | 44.1% | -4.96% | 1.24% | -11% | -15% | -4.96%
COc1cnc(NS(=O)(=O)c2ccc(N)cc2)nc1 [Sulfameter] | > 10 µM | > 10 µM | -10.8% | -13.8% | -0.547% | -4.82% | -3.61% | 0.414% | 5.13% | 12.1% | 8.51% | 0.478%
Nc1ccc(S(N)(=O)=O)cc1 [Sulfanilamide] | > 10 µM | > 10 µM | -4.56% | -14.5% | -27.6% | -20.9% | -19.4% | -9.12% | -7.95% | -13.7% | -13.7% | -7.82%
